Assay [1] is described as follows: DPPH radical scavenging activity. The conditions noted are these: Trolox equivalent; compounds and Trolox 100 µM. The text has this:
DPPH is a stable chromogen radical, which is widely used to assess the antioxidant activity of biological objects, in particular when searching for potential therapeutic agents used to maintain the redox balance in the body and treat pathologies associated with the action of free radicals. In turn, the oxygen radical absorbance capacity (ORAC) analysis is based on the removal by potential antioxidants of peroxyl radicals generated by AAPH (2,2’-axobis-2-methyl-propanimidamide, dihydrochloride), preventing the degradation of the fluorescein probe.
The measurement of the antiradical activity of synthesized hydroxamic acids was carried out using the method described in [150]. The studied compounds were introduced into the wells of a 96-well black tablet (the final concentration was 100 microns), after which a freshly prepared solution of 2,2-diphenyl-1-picrylhydrazyl (Sigma Aldrich, St. Louis, Missouri, USA) was added. After the incubation time had elapsed, the DPPH radical-scavenging activity was measured using a multifunctional Cytation™3 tablet analyzer (BioTek Instruments, Inc., Winooski, VT, USA) at λ = 517 nm by the difference in the reduction of the DPPH radical peak between control samples containing an equivalent volume of solvent and samples with the substances under study.

The target in assay [2] is T1, HDAC6 (Homo sapiens, UniProt Q9UBN7).
T1 construct: purchased Enzo Life Sciences
T1 sequence (Q9UBN7 1-1215): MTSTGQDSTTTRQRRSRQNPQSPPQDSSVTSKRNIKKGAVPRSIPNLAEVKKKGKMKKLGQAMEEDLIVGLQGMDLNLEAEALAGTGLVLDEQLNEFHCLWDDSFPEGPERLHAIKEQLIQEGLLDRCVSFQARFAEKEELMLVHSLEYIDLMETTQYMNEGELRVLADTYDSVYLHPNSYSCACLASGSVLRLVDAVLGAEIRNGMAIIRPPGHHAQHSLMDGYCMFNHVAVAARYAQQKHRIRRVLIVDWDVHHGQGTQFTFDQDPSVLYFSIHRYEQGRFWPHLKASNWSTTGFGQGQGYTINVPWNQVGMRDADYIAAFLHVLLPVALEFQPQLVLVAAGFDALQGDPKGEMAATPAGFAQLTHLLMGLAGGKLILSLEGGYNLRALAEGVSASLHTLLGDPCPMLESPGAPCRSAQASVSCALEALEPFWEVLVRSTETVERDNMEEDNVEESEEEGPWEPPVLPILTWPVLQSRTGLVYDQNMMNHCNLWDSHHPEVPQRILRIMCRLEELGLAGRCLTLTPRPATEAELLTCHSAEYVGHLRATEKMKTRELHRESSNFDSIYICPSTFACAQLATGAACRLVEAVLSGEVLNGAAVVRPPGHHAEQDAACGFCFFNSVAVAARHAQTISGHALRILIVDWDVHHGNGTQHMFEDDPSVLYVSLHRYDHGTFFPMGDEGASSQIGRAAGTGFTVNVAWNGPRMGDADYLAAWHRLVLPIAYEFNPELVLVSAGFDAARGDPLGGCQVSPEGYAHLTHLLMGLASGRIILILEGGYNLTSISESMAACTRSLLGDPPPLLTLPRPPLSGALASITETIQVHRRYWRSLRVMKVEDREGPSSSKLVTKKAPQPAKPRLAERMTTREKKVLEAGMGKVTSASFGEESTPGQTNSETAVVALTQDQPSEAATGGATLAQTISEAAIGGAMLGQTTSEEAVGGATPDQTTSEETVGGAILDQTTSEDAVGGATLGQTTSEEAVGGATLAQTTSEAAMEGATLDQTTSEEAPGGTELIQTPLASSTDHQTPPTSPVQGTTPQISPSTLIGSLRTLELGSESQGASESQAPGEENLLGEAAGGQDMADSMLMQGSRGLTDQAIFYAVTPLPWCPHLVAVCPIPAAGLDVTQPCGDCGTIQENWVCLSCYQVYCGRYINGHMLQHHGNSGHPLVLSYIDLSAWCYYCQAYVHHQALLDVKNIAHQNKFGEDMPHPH
As to the kind of experiment: Fluorimetric measurement of HDAC6 activity (FLUOR DE LYS kit). Type of assay: biochemical. The note with it: Table 1; read-out: HDAC6-Inhibitory Effect, IC50.

For assay [3], the system named is 5xFAD transgenic mice brain. Briefly: MDA level in brain samples (TBA test). The format is in vivo. The conditions noted are these: 21-day administration, 15 mg/kg; p = 0.001 vs 5xFAD. The text has this: As part of the in vivo testing of the biological activity of the leader compound, a transgenic mouse model with Alzheimer’s disease 5xFAD at the age of 13 months was used. This line expresses two human genes: APP (amyloid peptide precursor protein gene) with three types of mutations (Swedish (K670N, M671L), Florida (I716V) and London (V717I)), as well as the presenilin 1 gene with mutations (M146L and L286V) characteristic of this disease. Clinically healthy wildtype single-litter mice C57Bl6/j (n = 8) were used as a control group. […]
To determine the level of malondialdehyde in the brain of animals, the samples were homogenized in a buffer solution and subjected to a centrifugation procedure at 12,000 rpm for 10 min at 4 °C, after which the infusion fluid was collected for subsequent analysis. Quantitative determination of the protein was carried out as described earlier.
The content of malondialdehyde was determined using a modified TBA test. […] The optical density of the selected suprasetting fluid was measured using a multifunctional Cytation™3 flatbed analyzer (BioTek Instruments, Inc., Winooski, VT, USA) at λ = 540 nm.

As a reminder, the IC50 is the concentration needed to halve the response being measured. For `C=C(C)[C@@H]1CC=C(CNC(=O)/C=C/c2ccc(C(=O)NO)cc2)CC1` [Compound 35a, (S,E)-N-hydroxy-4-(3-oxo-3-(((4-(prop-1-en-2-yl)cyclohex-1-en-1-yl)methyl)amino)prop-1-en-1-yl)benzamide], the “DPPH value (TE)” value in assay [1] turned out to be 0.88 TE. Besides, the IC50 in assay [2] was 3.85 ± 0.24 µM. Moreover, the “MDA level in brain (increase in 5xFAD mice)” value in assay [3] was “reversed”.

Values taken from article PMC10254045, “Elaboration of the Effective Multi-Target Therapeutic Platform for the Treatment of Alzheimer’s Disease Based on Novel Monoterpene-Derived Hydroxamic Acids” (International Journal of Molecular Sciences, 2023).
